Data from the supplement of paper PMC4862054.

How the values were obtained:
Assay in all cases: normalised viability (% of control), CellTiter-Blue; higher = more viable cells (about 100 = DMSO control)
Settings in all cases: incubation time: 72 h
[1] = tested on: MDA-MB-453
In short: (§1)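 Compound dissolved in 5 µl medium was pre-loaded into 384-well plates, and breast cancer cell lines in 20 µl suspension were seeded on top and incubated 72 h. After adding 2.5 µl CellTiter-Blue reagent for 2 h at 37 °C, fluorescence was read at 560/590 nm. Plates were normalised to vehicle (100) and a positive kill control (0), with Z'-factor quality control. Each value is normalised viability at a single listed concentration from the series.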

[2] = tested on: CAL-148
In short: as §1

[3] = tested on: DU-4475
In short: as §1

[4] = tested on: CAL-85-1
In short: as §1

[5] = tested on: MDA-MB-453; remark: listed apart in the source
Procedure: (§2)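 DSRT, CellTiter-Blue viability, 72 h incubation. Signal is normalised to DMSO and benzethonium chloride controls. Value is the normalised response at dose 9.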

[6] = tested on: HDQ-P1
Procedure: as §2

[7] = tested on: CAL-148; remark: listed apart in the source
Procedure: as §2

[8] = tested on: DU-4475; remark: listed apart in the source
Procedure: as §2

[9] = tested on: CAL-85-1; remark: listed apart in the source
Procedure: as §2

[10] = tested on: CAL-51
Procedure: as §2

[11] = tested on: HCC1599
In short: as §1

[12] = tested on: MDA-MB-231
In short: as §1

[13] = tested on: BT-549
In short: as §1

[14] = tested on: MDA-MB-453; remark: listed apart in the source
In short: as §1

[15] = tested on: MDA-MB-468
In short: as §1

[16] = tested on: HCC1937
In short: as §1

[17] = tested on: DU-4475; remark: listed apart in the source
In short: as §1

[18] = tested on: MFM-223
In short: as §1

[19] = tested on: CAL-85-1; remark: listed apart in the source
In short: as §1

[20] = tested on: CAL-120
In short: as §1

[21] = tested on: SK-BR-3
In short: as §1

[22] = tested on: Hs578T
In short: as §1

[23] = tested on: BT-474
In short: as §1

[24] = tested on: CAL-51; remark: listed apart in the source
In short: as §1

[25] = tested on: MDA-MB-436
In short: as §1

[26] = tested on: HCC1143
In short: as §1

O=C(/C=C/c1cccnc1)NCCCCC1CCN(C(=O)c2ccccc2)CC1 [FK-866]
Settings	normalised viability [%]
[1], 300 nM	22.4
[2], 300 nM	45.6
[3], 300 nM	2.9
[4], 300 nM	54
[5], 1000 nM	19.9
[6], 1000 nM	58.5
[7], 1000 nM	44.2
[8], 1000 nM	3.53
[9], 1000 nM	49.2
[10], 1000 nM	34
[11], 1 nM	116
[11], 100 nM	19.5
[11], 1000 nM	17
[12], 1 nM	106
[12], 100 nM	27.9
[12], 1000 nM	23.2
[13], 1 nM	95
[13], 100 nM	10.9
[13], 1000 nM	10.7
[14], 0.3 nM	111
[14], 3 nM	31.7
[14], 10 nM	22.3
[15], 1 nM	91.9
[15], 100 nM	1.9
[15], 1000 nM	1.73
[16], 1 nM	93.3
[16], 100 nM	64.2
[16], 1000 nM	42.5
[17], 0.3 nM	104
[17], 3 nM	77.2
[17], 10 nM	86
[18], 1 nM	108
[18], 100 nM	21.2
[18], 1000 nM	20.1
[19], 0.3 nM	103
[19], 3 nM	97.7
[19], 10 nM	91.6
[20], 1 nM	107
[20], 100 nM	24.7
[20], 1000 nM	23.3
[21], 1 nM	101
[21], 100 nM	100
[21], 1000 nM	111
[22], 1 nM	99.9
[22], 100 nM	15
[22], 1000 nM	15.9
[23], 1 nM	112
[23], 100 nM	56.8
[23], 1000 nM	58.2
[24], 0.3 nM	113
[24], 3 nM	95.5
[24], 10 nM	72.8
[25], 1 nM	96.2
[25], 100 nM	23.5
[25], 1000 nM	17.7
[26], 1 nM	85.6
[26], 100 nM	24.4
[26], 1000 nM	21.3

Nc1nc(F)nc2c1ncn2[C@@H]1O[C@H](CO)[C@@H](O)[C@@H]1O [Fludarabine]
Settings	normalised viability [%]
[1], 3000 nM	111
[2], 3000 nM	84.5
[3], 3000 nM	104
[4], 3000 nM	96.7
[5], 10000 nM	93.6
[6], 10000 nM	80.1
[7], 10000 nM	64.9
[8], 10000 nM	99.3
[9], 10000 nM	78.1
[10], 10000 nM	101
[11], 10 nM	102
[11], 1000 nM	82.6
[11], 10000 nM	89.5
[12], 10 nM	90.9
[12], 1000 nM	89.9
[12], 10000 nM	81.1
[13], 10 nM	85.1
[13], 1000 nM	97.1
[13], 10000 nM	81.5
[14], 3 nM	113
[14], 30 nM	112
[14], 100 nM	103
[15], 10 nM	98.8
[15], 1000 nM	112
[15], 10000 nM	98.9
[16], 10 nM	97.5
[16], 1000 nM	84.8
[16], 10000 nM	54.5
[17], 3 nM	91.1
[17], 30 nM	93.2
[17], 100 nM	96.7
[18], 10 nM	101
[18], 1000 nM	106
[18], 10000 nM	100
[19], 3 nM	88
[19], 30 nM	87.2
[19], 100 nM	92.8
[20], 10 nM	82.3
[20], 1000 nM	78.5
[20], 10000 nM	81.5
[21], 10 nM	98.6
[21], 1000 nM	93.3
[21], 10000 nM	77.8
[22], 10 nM	112
[22], 1000 nM	99.2
[22], 10000 nM	87.2
[23], 10 nM	94
[23], 1000 nM	97.4
[23], 10000 nM	103
[24], 3 nM	100
[24], 30 nM	101
[24], 100 nM	91.9
[25], 10 nM	89
[25], 1000 nM	81.2
[25], 10000 nM	78.4
[26], 10 nM	75.8
[26], 1000 nM	80
[26], 10000 nM	55.9
